# Measurements published in ChEMBL document CHEMBL4316596, “Antimicrobial Peptides with High Proteolytic Resistance for Combating Gram-Negative Bacteria” (J Med Chem, 2019).
# Activity calls are given as the source filed them. The calls are words filed in the database; no cut-off is given here.
# How the values were obtained:
# [1] = test system: Escherichia coli; test: Antimicrobial activity against Escherichia coli ATCC 25922 after 24 hrs by NCCLS-protocol based assay; assay type: functional; conditions: ATCC 25922, 24 h
# [2] = test system: Escherichia coli; test: Antimicrobial activity against Escherichia coli K99 after 24 hrs by NCCLS-protocol based assay; assay type: functional; conditions: K99, 24 h
# [3] = test system: Pseudomonas aeruginosa; test: Antimicrobial activity against Pseudomonas aeruginosa PAO1 after 24 hrs by NCCLS-protocol based assay; assay type: functional; conditions: PAO1, 24 h
# [4] = test system: Pseudomonas aeruginosa; test: Antimicrobial activity against Pseudomonas aeruginosa 26305 clinical isolates after 24 hrs by NCCLS-protocol based assay; assay type: functional; conditions: Pseudomonas aeruginosa, 26305, 24 h
# [5] = test system: Pseudomonas aeruginosa; test: Antimicrobial activity against Pseudomonas aeruginosa CICC 21625 clinical isolates after 24 hrs by NCCLS-protocol based assay; assay type: functional; conditions: CICC 21625, 24 h
# [6] = test system: Pseudomonas aeruginosa; test: Antimicrobial activity against Pseudomonas aeruginosa 25349 clinical isolates after 24 hrs by NCCLS-protocol based assay; assay type: functional; conditions: Pseudomonas aeruginosa, 25349, 24 h
# [7] = test system: Salmonella typhimurium; test: Antimicrobial activity against Salmonella typhimurium ATCC 14028 after 24 hrs by NCCLS-protocol based assay; assay type: functional, Salmonella enterica subsp. enterica serovar Typhimurium; conditions: Salmonella enterica, ATCC 14028, 24 h
# [8] = test system: Salmonella typhimurium; test: Antimicrobial activity against Salmonella typhimurium C7731 after 24 hrs by NCCLS-protocol based assay; assay type: functional, Salmonella enterica subsp. enterica serovar Typhimurium; conditions: Salmonella enterica, C7731, 24 h
# [9] = Antimicrobial activity against Salmonella pullorum C7913 after 24 hrs by NCCLS-protocol based assay; assay type: functional, Salmonella enterica subsp. enterica serovar Pullorum; conditions: Salmonella enterica, C7913, 24 h
# [10] = test system: Acinetobacter baumannii; test: Antimicrobial activity against Acinetobacter baumannii after 24 hrs by NCCLS-protocol based assay; assay type: functional
# [11] = test system: Erythrocyte; test: Hemolytic activity against human RBC after 1 hr; assay type: ADME, cell-based
# [12] = test system: HEK-293T; test: Cytotoxicity against HEK293T cells assessed as cell death after 18 to 24 hrs by MTT assay; assay type: cell-based; conditions: Homo sapiens
# [13] = test system: Escherichia coli; test: Bactericidal activity against Escherichia coli ATCC 25922 incubated for 4 hrs followed by culture spread on agar plates and cultured overnight; assay type: functional; conditions: ATCC 25922, 4 h, read-out: MBC>99.9
# [14] = Selectivity ratio of IC50 for mouse RAW264.7 cells to geometric mean of the peptide MBC for bacteria
# [15] = Selectivity ratio of IC50 for HEK293T cells to geometric mean of the peptide MBC for bacteria
# [16] = Selectivity ratio of IC50 for pig IPECJ2 cells to geometric mean of the peptide MBC for bacteria
# [17] = test system: Escherichia coli; test: Bactericidal activity against Escherichia coli ATCC 25922 incubated for 4 hrs followed by culture spread on agar plates and cultured overnight in presence of NaCl; assay type: functional; conditions: ATCC 25922, 4 h, read-out: MBC>99.9
# [18] = test system: Escherichia coli; test: Bactericidal activity against Escherichia coli ATCC 25922 incubated for 4 hrs followed by culture spread on agar plates and cultured overnight in presence of CaCl2; assay type: functional; conditions: ATCC 25922, 4 h, read-out: MBC>99.9
# [19] = test system: Escherichia coli; test: Bactericidal activity against Escherichia coli ATCC 25922 incubated for 4 hrs followed by culture spread on agar plates and cultured overnight in presence of ZnCl2; assay type: functional; conditions: ATCC 25922, 4 h, read-out: MBC>99.9
# [20] = test system: Escherichia coli; test: Bactericidal activity against Escherichia coli ATCC 25922 incubated for 4 hrs followed by culture spread on agar plates and cultured overnight in presence of FeCl3; assay type: functional; conditions: ATCC 25922, 4 h, read-out: MBC>99.9
# [21] = test system: Escherichia coli; test: Bactericidal activity against Escherichia coli ATCC 25922 incubated for 4 hrs followed by culture spread on agar plates and cultured overnight in presence of MgCl2; assay type: functional; conditions: ATCC 25922, 4 h, read-out: MBC>99.9
# [22] = test system: Escherichia coli; test: Bactericidal activity against Escherichia coli ATCC 25922 incubated for 4 hrs followed by culture spread on agar plates and cultured overnight in presence of 4 mg/ml trypsin; assay type: functional; conditions: ATCC 25922, 4 h, read-out: MBC>99.9
# [23] = test system: Escherichia coli; test: Bactericidal activity against Escherichia coli ATCC 25922 incubated for 4 hrs followed by culture spread on agar plates and cultured overnight in presence of 1 mg/ml trypsin; assay type: functional; conditions: ATCC 25922, 4 h, read-out: MBC>99.9
# [24] = test system: Escherichia coli; test: Bactericidal activity against Escherichia coli ATCC 25922 incubated for 4 hrs followed by culture spread on agar plates and cultured overnight in presence of 0.5 mg/ml trypsin; assay type: functional; conditions: ATCC 25922, 4 h, read-out: MBC>99.9
# [25] = test system: Escherichia coli; test: Bactericidal activity against Escherichia coli ATCC 25922 incubated for 4 hrs followed by culture spread on agar plates and cultured overnight in presence of 0.25 mg/ml trypsin; assay type: functional; conditions: ATCC 25922, 4 h, read-out: MBC>99.9
# [26] = test system: Escherichia coli; test: Bactericidal activity against Escherichia coli ATCC 25922 incubated for 4 hrs followed by culture spread on agar plates and cultured overnight in presence of 4 mg/ml chymotrypsin; assay type: functional; conditions: ATCC 25922, 4 h, read-out: MBC>99.9
# [27] = test system: Escherichia coli; test: Bactericidal activity against Escherichia coli ATCC 25922 incubated for 4 hrs followed by culture spread on agar plates and cultured overnight in presence of 1 mg/ml chymotrypsin; assay type: functional; conditions: ATCC 25922, 4 h, read-out: MBC>99.9
# [28] = test system: Escherichia coli; test: Bactericidal activity against Escherichia coli K88 incubated for 4 hrs followed by culture spread on agar plates and cultured overnight; assay type: functional; conditions: K88, 4 h, read-out: MBC>99.9
# [29] = test system: Pseudomonas aeruginosa; test: Bactericidal activity against Pseudomonas aeruginosa ATCC 27853 incubated for 4 hrs followed by culture spread on agar plates and cultured overnight; assay type: functional; conditions: ATCC 27853, 4 h, read-out: MBC>99.9
# [30] = test system: Pseudomonas aeruginosa; test: Bactericidal activity against Pseudomonas aeruginosa PAO1 incubated for 4 hrs followed by culture spread on agar plates and cultured overnight; assay type: functional; conditions: PAO1, 4 h, read-out: MBC>99.9
# [31] = test system: Pseudomonas aeruginosa; test: Bactericidal activity against Pseudomonas aeruginosa CICC 21630 clinical isolates incubated for 4 hrs followed by culture spread on agar plates and cultured overnight; assay type: functional; conditions: CICC 21630, 4 h, read-out: MBC>99.9
# [32] = test system: Pseudomonas aeruginosa; test: Bactericidal activity against Pseudomonas aeruginosa CICC 21625 clinical isolates incubated for 4 hrs followed by culture spread on agar plates and cultured overnight; assay type: functional; conditions: CICC 21625, 4 h, read-out: MBC>99.9
# [33] = test system: Pseudomonas aeruginosa; test: Bactericidal activity against Pseudomonas aeruginosa 25349 clinical isolates incubated for 4 hrs followed by culture spread on agar plates and cultured overnight; assay type: functional; conditions: Pseudomonas aeruginosa, 25349, 4 h; read-out: MBC>99.9
# [34] = test system: Salmonella typhimurium; test: Bactericidal activity against Salmonella typhimurium C7731 incubated for 4 hrs followed by culture spread on agar plates and cultured overnight; assay type: functional, Salmonella enterica subsp. enterica serovar Typhimurium; conditions: Salmonella enterica, C7731, 4 h; read-out: MBC>99.9
# [35] = Cytotoxicity against IPECJ2 cells assessed as cell death after 18 to 24 hrs by MTT assay; assay type: cell-based; conditions: Sus scrofa, IPEC-J2
# [36] = test system: Escherichia coli; test: Bactericidal activity against Escherichia coli ATCC 25922 incubated for 4 hrs followed by culture spread on agar plates and cultured overnight in presence of 4 mg/ml pepsin; assay type: functional, organism-based
# [37] = test system: Pseudomonas aeruginosa; test: Antimicrobial activity against Pseudomonas aeruginosa ATCC 27853 at sub-MBC after 60 passages; assay type: functional, organism-based
# [38] = test system: Escherichia coli; test: Antibacterial activity against Escherichia coli ATCC 25922 infected in ICR mouse assessed as log reduction in bacterial cells in spleen at 5 mg/kg, ip administered at 5 mg/kg, ip dosed at 0.5, 2, 4 and 8 hrs post-infection; assay type: functional
# [39] = test system: Escherichia coli; test: Antibacterial activity against Escherichia coli ATCC 25922 infected in ICR mouse assessed as log reduction in bacterial cells in liver at 5 mg/kg, ip administered at 5 mg/kg, ip dosed at 0.5, 2, 4 and 8 hrs post-infection; assay type: functional
# [40] = test system: Escherichia coli; test: Antibacterial activity against Escherichia coli ATCC 25922 infected in ICR mouse assessed as log reduction in bacterial cells in peritoneal cavity at 5 mg/kg, ip administered at 5 mg/kg, ip dosed at 0.5, 2, 4 and 8 hrs post-infection; assay type: functional
Molecule,MIC95 [1] [µM],MIC95 [2] [µM],MIC95 [3] [µM],MIC95 [4] [µM],MIC95 [5] [µM],MIC95 [6] [µM],MIC95 [7] [µM],MIC95 [8] [µM],MIC95 [9] [µM],MIC95 [10] [µM],HC10 [11] [µM],IC50 [12] [µM],MBC [13] [µM],Ratio [14],Ratio [15],Ratio [16],MBC [17] [µM],MBC [18] [µM],MBC [19] [µM],MBC [20] [µM],also measured
CC[C@H](C)[C@H](NC(=O)CN)C(=O)NCC(=O)N[C@@H](C)C(=O)N[C@H](C(=O)N[C@@H](CC(C)C)C(=O)N[C@@H](CCCCN)C(=O)N[C@H](C(=O)N[C@@H](CC(C)C)C(=O)N[C@H](C(=O)N[C@H](C(=O)NCC(=O)N[C@@H](CC(C)C)C(=O)N1CCC[C@H]1C(=O)N[C@@H](C)C(=O)N[C@@H](CC(C)C)C(=O)N[C@H](C(=O)N[C@@H](CO)C(=O)N[C@@H](Cc1c[nH]c2ccccc12)C(=O)N[C@H](C(=O)N[C@@H](CCCCN)C(=O)N[C@@H](CCCNC(=N)N)C(=O)N[C@@H](CCCCN)C(=O)N[C@@H](CCCNC(=N)N)C(=O)N[C@@H](CCC(N)=O)C(=O)N[C@@H](CCC(N)=O)C(N)=O)[C@@H](C)CC)[C@@H](C)CC)[C@@H](C)O)[C@@H](C)O)C(C)C)C(C)C [MELITTIN],2,2,2,2,4,2,1,1,2,1,2,2.48,2,0.96,1.14,1.31,4,8,2,2,MBC [21]: 4 µM; MBC [22]: > 64 µM; MBC [23]: 16 µM; MBC [24]: 4 µM; MBC [25]: 2 µM; MBC [26]: > 64 µM; MBC [27]: > 64 µM; MBC [28]: 1 µM; MBC [29]: 4 µM; MBC [30]: 2 µM; MBC [31]: 4 µM; MBC [32]: 4 µM; MBC [33]: 4 µM; MBC [34]: 2 µM
H-IKPIIKPIIKPIIKPIIKPIIKPIIKPI-NH2,8,2,> 64,> 64,> 64,> 64,64,64,64,2,> 128,5920,16,75.44,162.49,9.46,> 128,> 128,32,64,IC50 [35]: 345 µM; MBC [21]: 64 µM; MBC [22]: 16 µM; MBC [23]: 16 µM; MBC [24]: 16 µM; MBC [25]: 16 µM; MBC [26]: 16 µM; MBC [27]: 16 µM; Activity [36]: inactive; MBC [28]: 2 µM; MBC [29]: > 64 µM; MBC [30]: > 64 µM; MBC [31]: > 64 µM; MBC [32]: > 64 µM; MBC [33]: > 64 µM; MBC [34]: > 64 µM
H-IRPIIRPIIRPIIRPIIRPIIRPIIRPI-NH2,1,1,4,32,64,32,2,1,2,1,> 128,324,2,1136.22,65.19,25.25,8,> 128,2,2,Activity [37]: Active; IC50 [35]: 126 µM; MBC [21]: 2 µM; MBC [22]: 2 µM; MBC [23]: 2 µM; MBC [24]: 2 µM; MBC [25]: 2 µM; MBC [26]: 2 µM; MBC [27]: 2 µM; log(activity) [38]: 1.6; log(activity) [39]: 2; log(activity) [40]: 5; Activity [36]: Active; MBC [28]: 1 µM; MBC [29]: 8 µM; MBC [30]: 8 µM; MBC [31]: 32 µM; MBC [32]: 64 µM; MBC [33]: 32 µM; MBC [34]: 2 µM
